Assay: Tests carried out by the Applicant on masking or reducing unpleasant flavor impressions
Conditions: for effect for masking or reducing the unpleasant flavor impression of an unpleasant-tasting substance: among the alkamides tested by the Applicant

| SMILES | effect for masking or reducing the unpleasant flavor impression of an unpleasant-tasting substance | effect to change, mask or reduce the unpleasant flavor impression (very low concentrations which are not sufficient to intensify salivation) |
| --- | --- | --- |
| CCCCC/C=C/C=C/C(=O)NCC(C)C [Formula (1), 2E,4E-decadienoic acid-N-isobutylamide] | best effect | very strong effect |
| CCCCC/C=C\C=C\C(=O)NCC(C)C [Formula (2), 2E,4Z-decadienoic acid-N-isobutylamide] | best effect |  |
| CCCCC/C=C\C=C/C(=O)NCC(C)C [Formula (3), 2Z,4Z-decadienoic acid-N-isobutylamide] | best effect |  |
| CCCCC/C=C/C=C\C(=O)NCC(C)C [Formula (4), 2Z,4E-decadienoic acid-N-isobutylamide] | best effect |  |

Source: patent US8828469B2, “Use of alkamides for masking an unpleasant flavor” (Symrise AG, priority 2007, dated 2014)
